Laboratory results published in patent US9120789B2, “1-(5-tert-butyl-2-phenyl-2H-pyrazol-3-yl)-3-[2-fluoro-4-(1-methyl-2-oxo-2,3-dihydro-1H-imidazo[4,5-b]pyridin-7-yloxy)-phenyl]-urea and related compounds and their use in therapy” (CANCER RESEARCH TECHNOLOGY LIMITED, priority 2010, dated 2015).

Tests used:
[1] = target: B-RAF (Homo sapiens, UniProt P15056); assay: Assay A - DELFIA kinase assay; type: biochemical; settings: 100 μM ATP; mean of usually three assays; read-out: Assay A BRAF IC50
Procedure: Biological Methods—Assay A—DELFIA Kinase Assay
Compounds were assessed by a kinase assay performed according to the following protocol.
The following reagents were prepared:
DELFIA Kinase Buffer (DKB):
DKB1 (DKB with B-RAF and MEK Protein):
Combine 4950 μL of DKB and 50 μL of 2.5 mg/mL GST-MEK stock (to give 1 mg of MEK per 40 μL). Then add 22.5 μL of B-RAF to give ˜0.2 μL of B-RAF per 40 μL.
DKB2 (DKB with MEK Protein):
Combine 4950 μL of DKB and 50 μL of 2.5 mg/mL GST-MEK stock (to give […] of MEK per 40 μL). Use 500 μL of this for the blow out (BO) and the empty vector (EV) control.
100 mM stock, dilute to 500 μM to give 100 μM final concentration in assay.
Inhibitors (Test Compounds):
Phospho-MEK1/2 CST #9121S diluted 1:1000 in DELFIA assay buffer (AB). Pre-incubate antibody in the AB for 30 minutes at room temperature prior to use.
Anti-rabbit-Eur labelled secondary Perkin Elmer #AD0105 diluted 1:1000 in DELFIA assay buffer (AB). Pre-incubate antibody in the AB for 30 minutes at room temperature prior to use. (Primary and secondary antibodies were incubated together.)
DELFIA assay buffer Perkin Elmer #4002-0010.
DELFIA enhancement solution Perkin Elmer #4001-0010.
96 well glutathione-coated black plate Perbio #15340.
1. Preblock wells with 5% milk in TBS for 1 hour.
2. Wash wells 3× with 200 μL TBS.
3. Plate out 40 μL of DKB1 for all inhibitors (test compounds), DMSO control, and optionally other control compounds.
4. Plate out 40 μL of DKB2 for BO and EV wells.
5. Add inhibitors (test compounds) at 0.5 μL per well according to desired plate layout.
6. Add 0.5 μL DMSO to vehicle control wells.
7. Add 2 μL of B-RAF to BO and EV wells.
8. Pre-incubate with inhibitors (test compounds) for 10 minutes at room temperature with shaking.
9. Add 10 μL of 500 μM ATP stock, in DKB, to give 100 μM assay concentration.
10. Seal plates with TopSeal and incubate at room temperature with shaking for 45 minutes.
11. Wash plates 3× with 200 μL 0.1% Tween20/Water to terminate reaction.
12. Add 50 μL per well of antibody mix and incubate for 1 hour at room temperature with shaking.
13. Wash plates 3× with 200 μL 0.1% Tween20/Water.
14. Add 100 μL DELFIA enhancement solution per well, cover in foil, and incubate at room temperature for 30 minutes with shaking.
15. Read on Victor using Europium protocol.
(§1) Values for the blank (Empty Vector) are subtracted from all values. The DMSO controls are set as 100% activity and assay points (the response) are calculated as a percentage of the DMSO control. Data are plotted using Graphpad Prism software and a non-linear regression line is calculated using a variable slope sigmoidal dose-response equation: Y=Bottom+[Top−Bottom]/[1+10^((Log EC50−X)*HillSlope)] where X is the logarithm of concentration and Y is the response. The IC50 generated by this procedure is the concentration of the drug that produces a percentage control fluorescence value midway between the saturation, and zero-effect plateaus. Three independent assays are usually performed and the mean IC50 is reported. Biological Methods—Assay B—Cell Based Phosho-ERK Assay

[2] = tested on: pERK in mutant BRAF WM266.4 cells; assay: Assay B - cell based phospho-ERK assay; settings: Homo sapiens, WM 266-4, 6 hours incubation
Procedure: as §1
Compounds were assessed using a cell-based assay which was performed according to the following protocol.
Plate out 16,000 mutant BRAF WM266.4 cells/well in 99 μL medium in a 96-well plate.
1. Add 1 μL inhibitor (test compound) to the cells (total […]).
2. Incubate the cells with test compound for 6 hours at 37° C.
3. Aspirate off the solution from all of the wells.
4. Fixate the cells with 100 μL 4% formaldehyde/0.25% Triton X-100 PBS per well.
5. Incubate the plate for 1 hour at 4° C.
6. Aspirate off the fixing solution and add 300 μL TBS per well.
7. Leave the plate overnight at 4° C.
1. Wash the plate 2× with 200 μL PBS per well.
2. Block with 100 μL 5% dried milk in TBS.
3. Incubate the plate for 20 minutes at 37° C.
4. Wash the plate 2× with 0.1% tween/H2O.
5. Add 50 μL of 3 μg/mL primary antibody pERK (Sigma M8159), diluted in 5% milk powder/TBS, to each well.
6. Incubate the plate for 2 hours at 37° C.
7. Wash the plate 3× with 0.1% tween/H2O.
8. Add 50 μL of 0.45 μg/mL secondary Europium-labelled anti-mouse antibody (Perkin Elmer) to each well.
9. Incubate the plate for 1 hour at 37° C.
10. Wash the plate 3× with 0.1% tween/H2O.
11. Add 100 μL enhancement solution (Perkin Elmer) to each well.
12. Leave the plate for approximately 10 minutes at room temperature before gently shaking the plate.
13. Read Europium Time Resolved Fluorescence in Victor2.
14. Wash the plate 2× with 0.1% tween/H2O.
15. Measure the protein concentration with BCA (Sigma) by adding 200 μL of solution per well.
16. Incubate the plate for 30 minutes at 37° C.
17. Read absorbance levels at 570 nm in a plate reader.
Note that Europium counts are normalised for protein levels by dividing counts by absorbance.
as §1, with “blank (no cells)” for “blank (Empty Vector)”, “the response).” for “the response.”, “Methods—Assay C—SRB Cell Proliferation” for “Methods—Assay B—Cell Based Phosho-ERK”, “Assay (SRB GI50)” for “Assay”

B-RAF, sequence (P15056 whole entry): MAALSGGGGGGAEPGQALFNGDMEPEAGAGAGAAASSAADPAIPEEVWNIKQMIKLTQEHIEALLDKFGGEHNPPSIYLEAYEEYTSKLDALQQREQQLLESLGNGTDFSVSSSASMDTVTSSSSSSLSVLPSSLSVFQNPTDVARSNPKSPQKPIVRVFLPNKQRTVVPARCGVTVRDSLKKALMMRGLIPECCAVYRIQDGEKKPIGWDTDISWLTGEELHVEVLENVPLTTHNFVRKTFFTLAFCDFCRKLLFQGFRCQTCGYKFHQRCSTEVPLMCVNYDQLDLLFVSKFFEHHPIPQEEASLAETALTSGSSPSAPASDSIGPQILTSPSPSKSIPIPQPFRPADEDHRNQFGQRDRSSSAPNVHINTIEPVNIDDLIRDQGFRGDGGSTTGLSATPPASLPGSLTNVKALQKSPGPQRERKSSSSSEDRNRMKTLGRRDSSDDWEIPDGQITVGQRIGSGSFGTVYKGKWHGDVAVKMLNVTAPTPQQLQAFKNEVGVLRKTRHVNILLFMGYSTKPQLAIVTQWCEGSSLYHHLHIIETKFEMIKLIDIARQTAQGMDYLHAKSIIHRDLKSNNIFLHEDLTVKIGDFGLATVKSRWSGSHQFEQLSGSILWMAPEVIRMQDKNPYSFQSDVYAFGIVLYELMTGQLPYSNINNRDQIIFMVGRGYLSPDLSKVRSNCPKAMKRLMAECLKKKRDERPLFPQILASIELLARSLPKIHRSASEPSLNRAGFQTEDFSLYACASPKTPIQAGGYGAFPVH

Row | SMILES | IC50 [1] [nM] | IC50 [2] [nM]
1 | Cc1ccc(-n2nc(C(C)(C)C)cc2NC(=O)Nc2ccc(Oc3ccnc4[nH]c(=O)n(C)c34)c3ccccc23)cc1 [BB-02, 1-(1-N-p-tolyl-3-tert-butyl-pyrazol-5-yl)-3-(4-(2-oxo-2,3-dihydro-1-N-methyl-1H-imidazo[4,5-b]pyridin-7-yl-oxy)naphthalen-1-yl)urea] | 2280 | 26
2 | CC(C)(C)c1cc(NC(=O)Nc2ccc(Oc3ccnc4[nH]c(=O)[nH]c34)cc2)n(-c2ccccc2)n1 [XX-01, 1-(5-Tert-butyl-2-phenyl-2H-pyrazol-3-yl)-3-[4-(2-oxo-2,3-dihydro-1H-imidazo[4,5-b]pyridin-7-yloxy)-phenyl]-urea] | 94 | 620
3 | Cc1ccc(-n2nc(C(C)(C)C)cc2NC(=O)Nc2ccc(Oc3ccnc4[nH]c(=O)n(C)c34)cc2)cc1 [XX-02, 1-(1-N-p-tolyl-3-tert-butyl-pyrazol-5-yl)-3-(4-(2-oxo-2,3-dihydro-1-N-methyl-1H-imidazo[4,5-b]pyridin-7-yl-oxy)phenyl)urea] | 200 | 90
4 | CC(C)(C)c1cc(NC(=O)Nc2ccc(Oc3ccnc4[nH]c(=O)[nH]c34)cc2)n(-c2ccc(F)cc2)n1 [XX-04, 1-[5-tert-Butyl-2-(4-fluoro-phenyl)-2H-pyrazol-3-yl]-3-[4-(2-oxo-2,3-dihydro-1H-imidazo[4,5-b]pyridin-7-yloxy)-phenyl]urea] | 240 | 200
5 | Cn1c(=O)[nH]c2nccc(Oc3ccc(NC(=O)Nc4cc(C(C)(C)C)nn4-c4ccccc4)c4ccccc34)c21 [BB-01, 1-(3-Tert-butyl-1-phenyl-1H-pyrazol-5-yl)-3-(4-(1-methyl-2-oxo-2,3-dihydro-1H-imidazo[4,5-b]pyridin-7-yloxy)naphthalen-1-yl)urea] | 250 | 19
6 | Cn1c(=O)n(C)c2c(Oc3ccc(NC(=O)Nc4cc(C(C)(C)C)nn4-c4ccccc4)c(F)c3)ccnc21 [XX-03, 1-(3-Tert-butyl-1-phenyl-1H-pyrazol-5-yl)-3-(4-(1,3-dimethyl-2-oxo-2,3-dihydro-1H-imidazo[4,5-b]pyridin-7-yloxy)-2-fluorophenyl)urea] | 1090 | 120
7 | Cn1c(=O)[nH]c2nccc(Oc3ccc(NC(=O)Nc4cc(C(C)(C)C)nn4-c4ccccc4)c(F)c3)c21 [AA-01, 1-(3-Tert-butyl-1-phenyl-1H-pyrazol-5-yl)-3-(2-fluoro-4-(1-N-methyl-2-oxo-2,3-dihydro-1H-imidazo[4,5-b]pyridin-7-yloxy)phenyl)urea] | 270 | 260
